In US20100311608A1, “METHOD TO PREPARE MAGNETIC BEADS CONJUGATED WITH SMALL COMPOUNDS” (RIKEN, priority 2009, published 2010):

System: THP-1 cells
Assay: Amount of TNF-α released from THP-1 cells
Format: cell-based, human
Details: free body, 37° C. for 4 hours, FIG. 8
Protocol: Human monocyte leukemia-derived THP-1 cells (ATCC) were cultured in an RPMI1640 medium (Invitrogen/GIBCO). To the medium, 10% fetal bovine serum (JRH Bioscience), 1 mM sodium pyruvate (Invitrogen/GIBCO), 100 units/mL penicillin, and 100 μg/mL streptomycin (Invitrogen/GIBCO) were added.
(1) The cultured Jurkat cells, derived from human T-lymphocyte leukemia cells, were recovered (1×10^6/mL), and the thus recovered cells were then centrifuged at 1000 rpm for 10 minutes. (2) After a supernatant had been removed, the residue was washed with PBS (137 mM NaCl, 3 mM KCl, 9 mM NaHPO4, 1.5 mM KH2PO4, pH 7.4). (3) The cells were suspended in 300 μL of Binding buffer ([…] Tris-HCl, 150 mM NaCl, protease inhibitor cocktail, pH 7.5). (4) The cells were disintegrated by an ultrasonic wave treatment, and the disintegration of the cells was then observed under a microscope. […] (6) The protein concentration in the cell extract of the supernatant was measured, and the extract was then diluted with Lysis buffer (137 mM NaCl, 3 mM KCl, 9 mM NaHPO4, 1.5 mM KH2PO4, protease inhibitor cocktail, pH 7.4), resulting in a final protein concentration of 5 mg/mL. […] The amount of TNF-α contained in this supernatant was measured. […] (9) 50 μL of Stop solution was added to the resultant, and the absorption spectrum at 450 nm was then measured. […]

Substance: Lipid A
- responsiveness in the THP cells (TNF-α release): not so high
